Measurements: ChEMBL document CHEMBL1201861, “Genomics of Drug Sensitity in Cancer screening data, Wellcome Trust Sanger Institute”

Assays:
Type in all cases: functional, cell-based
NCI-H2227 = assay: cells; details: Homo sapiens;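 further: growth inhibition of the human cell line, read out with a cell viability assay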
Description: SANGER: Inhibition of human NCI-H2227 cell growth in a cell viability assay.

MOLT-13 = assay: cells; details: Homo sapiens;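 further: IC50 for suppression of MOLT-13 cell growth, read out with a cell viability assay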
Description: SANGER: Inhibition of human MOLT-13 cell growth in a cell viability assay.

NCI-H719 = assay: cells; details: Homo sapiens;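 further: growth inhibition of the cultured cell line, read out with a viability assay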
Description: SANGER: Inhibition of human NCI-H719 cell growth in a cell viability assay.

COR-L279 = assay: SANGER: Inhibition of human COR-L279 cell growth in a cell viability assay.
L-540 = assay: cells; details: Homo sapiens;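 further: growth inhibition of the human L-540 cell line, read out with a viability assay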
Description: SANGER: Inhibition of human L-540 cell growth in a cell viability assay.

SKM-1 = assay: SANGER: Inhibition of human SKM-1 cell growth in a cell viability assay.
BL-70 = assay: SANGER: Inhibition of human BL-70 cell growth in a cell viability assay.
JIYOYE = assay: cells; details: Homo sapiens
Description: SANGER: Inhibition of human JiyoyeP-2003 cell growth in a cell viability assay.

TALL-1 = assay: cells; details: Homo sapiens;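 further: growth inhibition of cultured human TALL-1 cells, read out by a cell viability assay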
Description: SANGER: Inhibition of human TALL-1 cell growth in a cell viability assay.

OPM-2 = assay: cells; details: Homo sapiens;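 further: growth of OPM-2 cells measured with a viability assay, IC50 for suppression of proliferation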
Description: SANGER: Inhibition of human OPM-2 cell growth in a cell viability assay.

NCI-H322M = assay: cells; details: Homo sapiens;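 further: cell viability assay measuring inhibition of growth of human NCI-H322M cells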
Description: SANGER: Inhibition of human NCI-H322M cell growth in a cell viability assay.

Daudi = assay: cells; details: Homo sapiens;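 further: growth inhibition of Daudi cells, read out by a viability assay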
Description: SANGER: Inhibition of human Daudi cell growth in a cell viability assay.

CESS = assay: SANGER: Inhibition of human CESS cell growth in a cell viability assay.
SR = assay: cells; details: Homo sapiens
Description: SANGER: Inhibition of human SR cell growth in a cell viability assay.

SNU-C1 = assay: cells; details: Homo sapiens;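 further: growth inhibition of SNU-C1 human cells, read out by a cell viability assay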
Description: SANGER: Inhibition of human SNU-C1 cell growth in a cell viability assay.

ECC12 = assay: cells; details: Homo sapiens
Description: SANGER: Inhibition of human ECC12 cell growth in a cell viability assay.

LC-1F = assay: cells; details: Homo sapiens;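 further: growth inhibition of human LC-1F cells, read out with a cell viability assay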
Description: SANGER: Inhibition of human LC-1F cell growth in a cell viability assay.

NCI-H2196 = assay: cells; details: Homo sapiens;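 further: cell viability assay used as the readout of growth inhibition in NCI-H2196 cells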
Description: SANGER: Inhibition of human NCI-H2196 cell growth in a cell viability assay.

MC-CAR = assay: cells; details: Homo sapiens;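 further: growth inhibition of the human MC-CAR cell line, read out by a cell viability assay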
Description: SANGER: Inhibition of human MC-CAR cell growth in a cell viability assay.

TUR = assay: cells; details: Homo sapiens;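 further: growth inhibition of human TUR cells, read out with a cell viability assay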
Description: SANGER: Inhibition of human TUR cell growth in a cell viability assay.

U-698-M = assay: cells; details: Homo sapiens
Description: SANGER: Inhibition of human U-698-M cell growth in a cell viability assay.

CPC-N = assay: cells; details: Homo sapiens;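 further: growth inhibition of CPC-N cells, with a cell viability assay as the readout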
Description: SANGER: Inhibition of human CPC-N cell growth in a cell viability assay.

MRK-nu-1 = assay: cells; details: Homo sapiens;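 further: cell viability assay measuring growth suppression of human MRK-nu-1 cells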
Description: SANGER: Inhibition of human MRK-nu-1 cell growth in a cell viability assay.

BC1 cell line = assay: SANGER: Inhibition of human BC-1 cell growth in a cell viability assay.
NCI-H524 = assay: cells; details: Homo sapiens;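 further: growth inhibition of human NCI-H524 cells, read out through a cell viability assay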
Description: SANGER: Inhibition of human NCI-H524 cell growth in a cell viability assay.

NCCIT = assay: SANGER: Inhibition of human NCCIT cell growth in a cell viability assay.
NALM-6 = assay: cells; details: Homo sapiens;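 further: growth inhibition of NALM-6 cells, read out with a cell viability assay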
Description: SANGER: Inhibition of human NALM-6 cell growth in a cell viability assay.

P31-FUJ = assay: cells; details: Homo sapiens;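 further: growth inhibition of P31-FUJ cells, read out with a viability assay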
Description: SANGER: Inhibition of human P31-FUJ cell growth in a cell viability assay.

With `O=C(/C=C/c1ccccc1)NC(NC(=S)Nc1cccc2cccnc12)C(Cl)(Cl)Cl` (stereo unspecified) [SALUBRINAL] the IC50 (NCI-H2227) was over 16 µM, the IC50 (MOLT-13) was over 16 µM and the IC50 (NCI-H719) was over 16 µM. It also gave an IC50 (COR-L279) of over 16 µM, an IC50 (L-540) of 16 µM and an IC50 (SKM-1) of over 16 µM. The IC50 (BL-70) was over 16 µM, the IC50 (JIYOYE) was over 16 µM and the IC50 (TALL-1) was over 16 µM. It also gave an IC50 (OPM-2) of over 16 µM, an IC50 (NCI-H322M) of over 16 µM and an IC50 (Daudi) of 6.34 µM. It also gave an IC50 (CESS) of 11.7 µM, an IC50 (SR) of over 16 µM and an IC50 (SNU-C1) of over 16 µM. The IC50 (ECC12) was over 16 µM, the IC50 (LC-1F) was over 16 µM and the IC50 (NCI-H2196) was over 16 µM. For the same compound, the IC50 (MC-CAR) was over 16 µM, the IC50 (TUR) was over 16 µM and the IC50 (U-698-M) was over 16 µM. The IC50 (CPC-N) was over 16 µM, the IC50 (MRK-nu-1) was 7.75 µM and the IC50 (BC1 cell line) was 15.2 µM. The IC50 (NCI-H524) was over 16 µM, the IC50 (NCCIT) was 11.6 µM and the IC50 (NALM-6) was 13.1 µM. The IC50 (P31-FUJ) was over 16 µM.
`CNC(=O)c1cc(Oc2ccc(NC(=O)Nc3ccc(Cl)c(C(F)(F)F)c3)cc2)ccn1` [SORAFENIB] was tested, and the IC50 (NCI-H2227) was over 4 µM, the IC50 (MOLT-13) was over 4 µM and the IC50 (NCI-H719) was over 4 µM. The IC50 (COR-L279) was over 4 µM, the IC50 (L-540) was 2.76 µM and the IC50 (SKM-1) was over 4 µM. It also gave an IC50 (BL-70) of over 4 µM, an IC50 (JIYOYE) of over 4 µM and an IC50 (TALL-1) of over 4 µM. It also gave an IC50 (OPM-2) of over 4 µM, an IC50 (NCI-H322M) of over 4 µM and an IC50 (Daudi) of over 4 µM. It also gave an IC50 (CESS) of over 4 µM, an IC50 (SR) of over 4 µM and an IC50 (SNU-C1) of over 4 µM. The IC50 (ECC12) was over 4 µM, the IC50 (LC-1F) was over 4 µM and the IC50 (NCI-H2196) was over 4 µM. For the same compound, the IC50 (MC-CAR) was over 4 µM, the IC50 (TUR) was over 4 µM and the IC50 (U-698-M) was over 4 µM. It also gave an IC50 (CPC-N) of over 4 µM, an IC50 (MRK-nu-1) of 3.61 µM and an IC50 (BC1 cell line) of 3.74 µM. The IC50 (NCI-H524) was over 4 µM, the IC50 (NCCIT) was over 4 µM and the IC50 (NALM-6) was over 4 µM. For the same compound, the IC50 (P31-FUJ) was over 4 µM.
